From ChEMBL document CHEMBL1142072, “Comparison of itraconazole and fluconazole treatments in a murine model of coccidioidal meningitis” (2007)
In brackets after ≈: the same amount, converted by molar mass. Activity calls are given as the source filed them. No cut-off for these calls is given here.

Assays:
[1] = tested on: Coccidioides immitis; experiment: Effect on fungal burdens in Coccidioides immitis Silveira infected CD1 mouse lung administered after 3 days of infection at 50 mg/kg, po bid after 12 days; format: functional, organism-based; design: dose 50 mg/kg
[2] = tested on: Mus musculus; experiment: Prolongation of survival in CD1 mouse infected with Coccidioides immitis Silveira administered after 3 days of infection at 25 mg/kg, po bid after 12 days relative to control; format: functional, organism-based; design: dose 25 mg/kg
[3] = tested on: Coccidioides immitis; experiment: Effect on Coccidioides immitis Silveira infection in CD1 mouse brain, spinal cord and lungs administered after 3 days of infection at 50 mg/kg, po bid after 10 days; format: functional, organism-based; design: dose 50 mg/kg
[4] = tested on: Coccidioides immitis; experiment: Antifungal activity against Coccidioides immitis by broth macrodilution method; format: functional; conditions: for MIC50 / MIC90: Coccidioides immitis
[5] = tested on: Mus musculus; experiment: Prolongation of survival in CD1 mouse infected with Coccidioides immitis Silveira administered after 3 days of infection at 50 mg/kg, po bid after 12 days relative to control; format: functional, organism-based; design: dose 50 mg/kg
[6] = tested on: Coccidioides immitis; experiment: Reduction of fungal burden in Coccidioides immitis Silveira infected CD1 mouse lung and kidney administered after 3 days of infection at 10 mg/kg, po bid after 5 days relative to control; format: functional, organism-based; design: dose 10 mg/kg
[7] = tested on: Coccidioides immitis; experiment: Effect on fungal burdens in Coccidioides immitis Silveira infected CD1 mouse brain administered after 3 days of infection at 50 mg/kg, po bid after 12 days; format: functional
[8] = tested on: Coccidioides immitis; experiment: Effect on fungal burdens in Coccidioides immitis Silveira infected CD1 mouse spinal cord administered after 3 days of infection at 50 mg/kg, po bid after 12 days; format: functional
[9] = tested on: Mus musculus; experiment: Prolongation of survival in CD1 mouse infected with Coccidioides immitis Silveira administered after 3 days of infection at 10 mg/kg, po bid after 12 days relative to control; format: functional, organism-based; design: dose 10 mg/kg
[10] = tested on: Mus musculus; experiment: Prolongation of survival in po dosed CD1 mouse infected with Coccidioides immitis Silveira administered after 3 days of infection after 12 days relative to control; format: functional, organism-based
[11] = tested on: Coccidioides immitis; experiment: Reduction of fungal burden in Coccidioides immitis Silveira infected po dosed CD1 mouse brain, spinal cord, lung, kidney administered twice daily after 3 days of infection measured after 5 days relative to control; format: functional, organism-based

Row | SMILES | Activity [1] | Activity [2] | Activity [3] | MFC50 [4] | MFC90 [4] | MIC50 [4] | MIC90 [4] | Activity [5] | Activity [6] | Activity [7] | Activity [8] | Activity [9] | Activity [10] | Activity [11] | log10CFU/g [7] | log10CFU/g [8]
1 | OC(Cn1cncn1)(Cn1cncn1)c1ccc(F)cc1F [FLUCONAZOLE] | Active | Active | Active | 25 µg/mL (≈ 81.6 µM) | >100 µg/mL | 25 µg/mL (≈ 81.6 µM) | > 100 µg/mL | Active | inactive | Active | Active | Active | Dose-dependent effect | Dose-dependent effect | – | –
2 | CCC(C)n1ncn(-c2ccc(N3CCN(c4ccc(OCC5COC(Cn6cncn6)(c6ccc(Cl)cc6Cl)O5)cc4)CC3)cc2)c1=O (configuration not stated) [ITRACONAZOLE] | Active | Active | Active | 1.56 µg/mL (≈ 2.21 µM) | 6.25 µg/mL (≈ 8.86 µM) | 0.78 µg/mL (≈ 1.11 µM) | 1.56 µg/mL (≈ 2.21 µM) | Active | – | – | – | Active | Dose-dependent effect | Dose-dependent effect | 0.75 | 1.73
